Columns and labels:
[1] = test system: N1^+/−/mTR^G2 mice; experiment: In vivo small molecule treatment, staining of AV calcification with Alizarin Red; conditions: for reduction of the extent of calcification / reduction of the number of mice that developed calcification: compared to DMSO-treated mice, Alizarin red; for reduction of the extent of calcification: TG003 n=2, p=0.09, XCT790 single calcified mouse, not statistically significant; for reduction of the number of mice that developed calcification: TG003 p=0.09, XCT790 not statistically significant; for number of mice with calcified AVs by Alizarin red staining: four weeks of treatment from fourth postnatal week, DMSO 14 of 86; for AV calcification, overall conclusion: summary statement
Experimental: (§1) Protocols were reviewed/approved by UCSF Institutional Animal Care and Use Committee, San Francisco, CA. N1^+/− and mTR^het C57Bl6 mice (purchased from Jackson Labs: #002797 and #004132, respectively) were used to generate double mutant animals. Breedings were performed as previously described (Theodoris et al., The Journal of Clinical Investigation. 2017; 127:1683) to generate N1^+/−/[…] mice. Mice were treated with XCT790 (5 mg/kg/day), TG003 (0.3 mg/kg/day or 2 mg/kg/day, results pooled for analysis), Fmoc-leu (0.6 mg/kg/day), GSK837149A (4.5 mg/kg/day), biperiden (10 mg/kg/day), CB1954 (15 mg/kg/day), putrescine (0.26 mg/kg/day), naloxone (25 mg/kg/day), all by intraperitoneal injection, and RO4929097 (60 mg/kg/day) by oral gavage, or equivalent volume of solvent (DMSO or saline) for four weeks starting at the fourth postnatal week.
Hearts were fixed by perfusion fixation under anesthesia using isofluorane by ventricular KCl injection followed by PBS wash and fixation with 4% paraformaldehyde. Hearts were then incubated in 10% formalin overnight. The cardiac apex was cut parallel to the aortic root, and the heart tissue was then paraffin processed using standard protocols and embedded with the cut surface down. The resulting paraffin block was trimmed and angled to obtain a full three-leaflet view of the aortic root. The root was serially sectioned at […] intervals from the base of the aortic sinus and mounted on slides. The slides were then deparaffinized, and calcification was stained with 2% Alizarin Red (pH 4.1-4.3) as previously described (Theodoris et al., The Journal of Clinical Investigation. 2017; 127:1683).

[2] = test system: N1^+/−/mTR^G2 mice; experiment: In vivo small molecule treatment, AV and PV peak velocity by echocardiography; conditions: XCT790 5 mg/kg/day i.p., TG003 0.3 or 2 mg/kg/day i.p. pooled; for AV stenosis by echocardiography: AV peak velocity versus DMSO; for PV stenosis by echocardiography: PV peak velocity versus DMSO
Experimental: as §1
Echocardiography was performed under isofluorane anesthesia with standard measurement techniques using the Vevo 770 Imaging System (VisualSonics) equipped with an RMV-707B transducer with central frequency of 30 MHz. Peak blood flow velocity through AVs and PVs was obtained by pulsed wave Doppler in the modified parasternal long and short axis views. The average of three cardiac cycles was used for each measurement.

Row | Compound | reduction of the extent of calcification [1] [%] | reduction of the number of mice that developed calcification [1] [%] | number of mice with calcified AVs by Alizarin red staining [1] | AV calcification, overall conclusion [1] | AV stenosis by echocardiography [2] | PV stenosis by echocardiography [2]
1 | CCN1/C(=C/C(C)=O)Sc2ccc(OC)cc21 [TG003, (Z)-1-(3-ethyl-5-methoxy-2,3-dihydrobenzothiazol-2-ylidene)propan-2-one] | 80 | 68 | 2 of 38 | showed a trend of reducing AV calcification | did not significantly impact | did not significantly impact
2 | COc1cc(/C=C(\C#N)C(=O)Nc2nnc(C(F)(F)F)s2)ccc1OCc1ccc(C(F)(F)F)cc1C(F)(F)F [XCT790, 2E-3-(4-{[2,4-bis(trifluoromethyl)benzyl]oxy}-3-methoxyphenyl)-2-cyano-N-[5-(trifluoromethyl)-1,3,4-thiadiazol-2-yl]acrylamide] | 99 | 64 | 1 of 17 | showed a trend of reducing AV calcification | showed a trend of reducing AV stenosis | sufficient to prevent PV stenosis

— US12599608B2, “Methods for treating cardiac valve disease” (The Regents of the University of California, priority 2018, dated 2026)
